# Active and inactive are the calls of the source. No cut-off for these calls is given here.
# What was measured:
# [1] = test system: RAW264.7; test: Antiinflammatory activity against mouse RAW264.7 cells assessed as inhibition of LPS-induced IL-6 production at 10 uM pretreated with compound for 0.5 hrs followed by incubation with LPS for 24 hrs by ELISA; format: functional; settings: time 24.5 hrs
# [2] = Cytotoxicity against mouse RAW264.7 cells assessed as cell viability at 10 uM incubated for 24 hrs by MTT assay relative to control; format: toxicity, cell-based; settings: read-out: Activity
# [3] = test system: Mus musculus; test: Antiinflammatory activity against LPS-induced acute lung injury C57BL/6J mouse model assessed as decrease in ratio of lung wet to dry weight at 20 mg/kg, ig administered every 12 hrs for 3 times and 30 mins later injected with LPS and measured after 5 hrs; format: functional, organism-based; settings: time 41.5 hrs
# [4] = test system: Mus musculus; test: Antiinflammatory activity against LPS-induced acute lung injury C57BL/6J mouse model assessed as decrease in LPS-induced F4/80 expression in lungs at 20 mg/kg, ig administered every 12 hrs for 3 times and 30 mins later injected with LPS and measured after 5 hrs by immunohistochemical staining based analysis; format: functional, organism-based; settings: time 41.5 hrs
# [5] = test system: Mus musculus; test: Antiinflammatory activity against LPS-induced acute lung injury C57BL/6J mouse model assessed as decrease in disruption of lung tissue structure and alveolar wall thickening at 20 mg/kg, ig administered every 12 hrs for 3 times and 30 mins later injected with LPS and measured after 5 hrs; format: functional, organism-based; settings: time 41.5 hrs
# [6] = test system: Mus musculus; test: Antiinflammatory activity against LPS-induced hyperemia C57BL/6J mouse model assessed as decrease in LPS-induced death rate at 20 mg/kg, po administered 1 hr prior to LPS stimulation and measured for 1 week; format: functional, organism-based; settings: time 1.0 weeks
# [7] = test system: Mus musculus; test: Antiinflammatory activity against LPS-induced hyperemia C57BL/6J mouse model assessed as decrease in LPS-induced morphological changes in spleen at 20 mg/kg, po administered 1 hr prior to LPS stimulation by Hematoxylin-Eosin staining based analysis; format: functional, organism-based
# [8] = test system: Mus musculus; test: Antiinflammatory activity against LPS-induced hyperemia C57BL/6J mouse model assessed as decrease in LPS-induced weight loss at 20 mg/kg, po administered 1 hr prior to LPS stimulation and measured for 1 week; format: functional, organism-based; settings: time 1.0 weeks
# [9] = test system: Mus musculus; test: Antiinflammatory activity against LPS-induced acute lung injury C57BL/6J mouse model assessed as decrease in LPS-induced IL-6 production in BALF at 20 mg/kg, ig administered every 12 hrs for 3 times and 30 mins later injected with LPS and measured after 5 hrs by ELISA; format: functional, organism-based; settings: time 41.5 hrs
# [10] = test system: Mus musculus; test: Antiinflammatory activity against LPS-induced acute lung injury C57BL/6J mouse model assessed as decrease in LPS-induced TNF-alpha production in BALF at 20 mg/kg, ig administered every 12 hrs for 3 times and 30 mins later injected with LPS and measured after 5 hrs by ELISA; format: functional, organism-based; settings: time 41.5 hrs
# [11] = test system: Mus musculus; test: Antiinflammatory activity against LPS-induced acute lung injury C57BL/6J mouse model assessed as decrease in neutrophil number in BALF at 20 mg/kg, ig administered every 12 hrs for 3 times and 30 mins later injected with LPS and measured after 5 hrs by Wrigth-Giemsa staining; format: functional, organism-based; settings: time 41.5 hrs
# [12] = test system: RAW264.7; test: Antiinflammatory activity against mouse RAW264.7 cells assessed as inhibition of LPS-induced TNF-alpha production pretreated with compound for 0.5 hrs followed by incubation with LPS for 24 hrs by ELISA; format: functional, cell-based
# [13] = test system: Mus musculus; test: Antiinflammatory activity against LPS-induced acute lung injury C57BL/6J mouse model assessed as decrease in total protein concentration in BALF at 20 mg/kg, ig administered every 12 hrs for 3 times and 30 mins later injected with LPS and measured after 5 hrs; format: functional, organism-based; settings: time 41.5 hrs
# [14] = test system: Mus musculus; test: Antiinflammatory activity against LPS-induced acute lung injury C57BL/6J mouse model assessed as decrease in LPS-induced IL-6 production in serum at 20 mg/kg, ig administered every 12 hrs for 3 times and 30 mins later injected with LPS and measured after 5 hrs by ELISA; format: functional, organism-based; settings: time 41.5 hrs
# [15] = test system: RAW264.7; test: Antiinflammatory activity against mouse RAW264.7 cells assessed as inhibition of LPS-induced IL-6 production pretreated with compound for 0.5 hrs followed by incubation with LPS for 24 hrs by ELISA; format: functional, cell-based
# [16] = test system: Mus musculus; test: Antiinflammatory activity against LPS-induced acute lung injury C57BL/6J mouse model assessed as decrease in LPS-induced TNF-alpha production in serum at 20 mg/kg, ig administered every 12 hrs for 3 times and 30 mins later injected with LPS and measured after 5 hrs by ELISA; format: functional, organism-based; settings: time 41.5 hrs
SMILES,inhibition at 10 µM [1] [%],"viability at 24 h, 10 µM [2] [%]",also measured
O=C(NC(=O)C1CCNC1)c1ccccc1 (configuration not stated),74,115,
O=C(/C=C/c1ccccc1)NC(=O)c1ccccc1,90.7,72.8,
C[C@@H]1C[C@H]2[C@@H]3CCC4=CC(=O)C=C[C@]4(C)[C@@]3(F)[C@@H](O)C[C@]2(C)[C@@]1(O)C(=O)CO,,,Activity [3]: Active; Activity [4]: Active; Activity [5]: Active
c1ccc(CCCNCc2cccs2)cc1,,,inhibition [1]: Active
O=C(NCCCc1ccccc1)c1cccs1,,,inhibition [1]: Active
O=C(/C=C/c1ccccc1)NCc1cccs1,,,inhibition [1]: Active
O=C(/C=C/c1ccccc1)NC(=O)/C=C/c1ccccc1,82.5,20.2,
O=C(NC(=O)c1cccs1)c1ccccc1,62.3,99.3,
CC(C)Cc1ccc(C(C)C(=O)NC(=O)/C=C/c2ccccc2)cc1 (configuration not stated),90.1,94.4,
COc1ccc2cc(C(C)C(=O)NC(=O)c3ccccc3)ccc2c1 (configuration not stated),71.2,89.7,
O=C(NC(=O)c1ccc2ccccc2n1)c1ccccc1,74,88.2,
O=C(/C=C/c1ccccc1)NC(=O)c1ccc2ccccc2n1,83.3,93.2,
CC(C)Cc1ccc(C(C)C(=O)NC(=O)c2ccccc2)cc1 (configuration not stated),71.1,91,
O=C(/C=C/c1ccccc1)NC(=O)C1CCNC1 (configuration not stated),74,130,
CC(C)(C)OC(=O)N1CCC(C(=O)NC(=O)/C=C/c2ccccc2)C1 (configuration not stated),77.5,135,
O=C(NC(=O)c1ccco1)c1ccccc1,70.2,106,
CC(C)Cc1ccc(C(C)C(=O)O)cc1 (configuration not stated) [IBUPROFEN],61,132,
O=C(/C=C/c1ccccc1)NC(=O)c1ccco1,88.6,97.3,
COc1ccc2cc(C(C)C(=O)NC(=O)/C=C/c3ccccc3)ccc2c1 (configuration not stated),79.1,78.5,
COc1cc(/C=C/C(=O)CC(=O)/C=C/c2ccc(O)c(OC)c2)ccc1O [CURCUMIN],87,120,
O=C(NC(=O)c1cc2ccccc2[nH]1)c1ccccc1,77.2,90.5,
O=C(/C=C/c1ccccc1)NC(=O)c1cc2ccccc2[nH]1,32,32.4,
COc1ccc2cc([C@H](C)C(=O)O)ccc2c1 [NAPROXEN],52.2,112,
COc1ccc2cc(C(C)C(=O)NC(=O)C(C)c3ccc(CC(C)C)cc3)ccc2c1 (configuration not stated),55.7,117,
O=C(CCc1ccccc1)NCc1cccs1,,,inhibition [1]: Active
CC(C)(C)OC(=O)N1CCC(C(=O)NC(=O)c2ccccc2)C1 (configuration not stated),60.6,143,
O=C(NC(=O)c1cccnc1)c1ccccc1,62,103,
O=C(CCc1ccccc1)NC(=O)c1cccs1,,,inhibition [1]: Active
O=C(NC(=O)c1ccccc1)c1ccccc1,66.7,109,
O=C(/C=C/c1ccccc1)NC(=O)c1cccs1,94.8,110,Activity [6]: Active; Activity [7]: Active; Activity [8]: Active; Activity [9]: Active; Activity [3]: Active; Activity [10]: Active; Activity [11]: Active; IC50 [12]: 15.3 µM; inhibition ([12]; time 24.5 hrs): Dose-Dependent Effect; Activity [13]: Active; Activity [4]: Active; Activity [14]: Active; IC50 [15]: 1.59 µM; inhibition ([15]; time 24.5 hrs): Dose-Dependent Effect; Activity [5]: Active; Activity [16]: Active

# — ChEMBL document CHEMBL5325447, “Synthesis and SAR study of novel diimide skeleton compounds with the anti-inflammatory activities in vitro and in vivo” (Bioorg Med Chem, 2023)
